Source: patent EP0051687A1, “Maleimides and process for the preparation of same” (MITSUI TOATSU CHEMICALS, Inc., priority 1980, dated 1982)

Assay: Solubility in organic solvents at room temperature
Format: physicochemical

CC(C)(c1ccc(O)cc1)c1ccc(N2C(=O)C=CC2=O)cc1 [2-(4'-hydroxyphenyl)-2-(4"-maleimidophenyl) propane]
Solubility of 2-(4'-hydroxyphenyl)-2-(4"-maleimidophenyl) propane (at room temperature ) (Organic Solvent: Acetone): 50 wt.% or higher | Solubility of 2-(4'-hydroxyphenyl)-2-(4"-maleimidophenyl) propane (at room temperature ) (Organic Solvent: Dimethylformamide): 50 wt.% or higher | Solubility of 2-(4'-hydroxyphenyl)-2-(4"-maleimidophenyl) propane (at room temperature ) (Organic Solvent: Dioxane): 36 wt.% | Solubility of 2-(4'-hydroxyphenyl)-2-(4"-maleimidophenyl) propane (at room temperature ) (Organic Solvent: Ethanol): 11 wt.% | Solubility of 2-(4'-hydroxyphenyl)-2-(4"-maleimidophenyl) propane (at room temperature ) (Organic Solvent: Methanol): 20 wt.% | Solubility of 2-(4'-hydroxyphenyl)-2-(4"-maleimidophenyl) propane (at room temperature ) (Organic Solvent: Methyl ethyl ketone): 46 wt.% | Solubility of 2-(4'-hydroxyphenyl)-2-(4"-maleimidophenyl) propane (at room temperature ) (Organic Solvent: Tetrahydrofuran): 50 wt.% or higher
